Reference: paper PMC12381781, “Structural and functional insights into the selective inhibition of mutant tau aggregation by purpurin and oleocanthal in frontotemporal dementia” (Protein Science : A Publication of the Protein Society, 2025)

Experiments:
[1] = tested on: CCRF-CEM (human leukemic lymphoblast) cells; experiment: MTS cytotoxicity assay, CCRF-CEM cells; format: cell-based; settings: 0-100 µM, 72 h
Description: Figure S16. Cytotoxic activity of PUR and OLC. Tau Biosensor and CCRF-CEM (human leukemic lymphoblast) cells were treated with increasing concentrations (0-100 µM) of PUR and OLC for 72 h. Cell viability was then assessed using the MTS assay. CCRF-CEM (human leukemic lymphoblasts) cells, known for their high sensitivity to cytotoxic agents ^1, were used as positive controls. […] Calculated IC50 values are indicated in the graphs. Mean ± SEM (n = 3).

SY5Y-TauP301L-EGFP cells = experiment: SH-SY5Y seeding assay, Triton X-100 fractionation and western blot; format: cell-based
From the text: SH‐SY5Y cells were transfected with the AAVS1 CAG rtTA3 TauP301L 2N4R‐EGFP plasmid using ScreenFect‐A‐plus Transfection Reagent (ScreenFect GmbH). AAVS1 CAG rtTA3 TauP301L 2N4R‐EGFP was a gift from Gerold Schmitt‐Ulms (Addgene plasmid #132393; http://n2t.net/addgene:132393; RRID: Addgene_132393). Stable cell lines expressing TauP301L 2N4R‐EGFP were generated via puromycin selection and are referred to as SY5Y‐TauP301L‐EGFP cells. Stable expression of the inducible TauP301L‐EGFP construct was confirmed by fluorescence microscopy and Western blot after doxycycline induction.
SH‐SY5Y and SY5Y‐TauP301L‐EGFP cells were plated at 250,000 cells per well on Geltrex™‐coated culture plates (Gibco, # A1413201) and maintained in complete DMEM. After 24 h, the medium was replaced with CTS™ Neurobasal™ A Medium (Gibco, # A1371201) supplemented with 1× B‐27™ Supplement (ThermoFisher Scientific, #17504044), […] L‐glutamine, and 1% Penicillin–Streptomycin (complete neurobasal medium). Cells were differentiated by treatment with 10 μM all‐trans‐retinoic acid (RA; Sigma‐Aldrich, # R2625) for 72 h. The differentiation was continued in complete neurobasal media supplemented with 10 μM RA and 50 ng/mL recombinant human brain‐derived neurotrophic factor (BDNF) (R&D Systems, #248‐BDB‐250) for another 72 h.
Differentiated SY5Y‐TauP301L‐EGFP cells were pre‐treated with 0.5 μg/mL doxycycline (Sigma‐Aldrich, # D3447) for 24 h to induce the expression of TauP301L‐EGFP. Doxycycline was maintained in the cell culture media throughout the seeding assay. Cells were transduced with tau aggregation reaction products, standardized to 100 nM tau peptide. Transduction mixtures were prepared by combining the tau aggregation reaction products with TurboFect™ Transfection Reagent (Thermo Fisher Scientific Inc.) in Opti‐MEM™. The mixture was briefly vortexed and incubated at room temperature for 15 min before adding to cells. After 72 h, cells were processed for Triton X‐100 fractionation and western blot analysis, as described below.
Triton X‐100 soluble and insoluble fractions were prepared as described previously with minor modifications (Annadurai, Malina, Malohlava, et al., [2022]). SY5Y‐TauP301L‐EGFP cells were harvested in 1× Tris‐buffered saline (TBS) containing 0.05% Triton X‐100, supplemented with protease and phosphatase inhibitors (Roche, #04693116001 and #04906837001). After centrifugation at 1000 × g for 10 min at 4°C, the supernatant was ultracentrifuged at 24,400 × g for 1 h at 4°C to separate Triton X‐100 soluble and insoluble fractions. The insoluble fraction was resuspended in radioimmunoprecipitation assay (RIPA) buffer (Thermo Fisher Scientific, #89901) with protease and phosphatase inhibitors for further analysis.
Equal volumes of soluble and insoluble fractions were resolved by SDS‐PAGE and transferred onto nitrocellulose membranes using the Trans‐Blot Turbo Transfer System (Bio‐Rad). […]
Densitometric analysis of insoluble tau bands was performed by first normalizing total tau signal intensities to GAPDH levels measured in the corresponding soluble fractions. […]

PHF6 = tested on: PHF6; parameters: method as in Viswanathan et al., [2020]; settings: reduced efficacy at higher peptide:compound ratios such as 5:1; ref Viswanathan et al., [2020]; cited from earlier work
[2] = cells transduced with P301L peptide aggregation products formed with compound vs without, 72 h

SMILES | IC50 [1] [µM] | pSer262, T22, or total tau levels, soluble fractions (SY5Y-TauP301L-EGFP cells; P301L peptide aggregation products, across treatments) | T22 or pSer262 tau, soluble and insoluble fractions (SY5Y-TauP301L-EGFP cells; WT peptide aggregation products formed with compound vs control) | oligomeric tau T22 level, insoluble fraction (SY5Y-TauP301L-EGFP cells; [2]) | pSer262 tau level, insoluble fraction (SY5Y-TauP301L-EGFP cells; [2]) | total tau level, insoluble fraction (SY5Y-TauP301L-EGFP cells; [2]) | PHF6 aggregation inhibition (PHF6)
C/C=C(/C=O)[C@@H](CC=O)CC(=O)OCCc1ccc(O)cc1 [OLC, oleocanthal] | > 10 | no significant differences | no substantial differences | significantly reduced | significantly reduced | significantly reduced | –
O=C1c2ccccc2C(=O)c2c(O)c(O)cc(O)c21 [PUR, purpurin] | – | – | – | – | – | – | inhibits PHF6 aggregation
